In data set [1] the target is Human immunodeficiency virus type 1 integrase (Human immunodeficiency virus 1, UniProt Q7ZJM1). Briefly: Inhibition of recombinant HIV-1 integrase by strand-transfer assay.
The subject of data set [2] is Human immunodeficiency virus. Briefly: Antiviral activity against pseudotyped HIV by luciferase reporter gene assay. Format: functional, organism-based. As to conditions: Human immunodeficiency virus 1. (In general: Reporter assays use an easily measured gene product as a stand-in for the process of interest.)
Data set [3] deals with Human immunodeficiency virus. Briefly: Antiviral activity against pseudotyped HIV by luciferase reporter gene assay in presence of human serum albumin. The format is functional, organism-based. The following applies: Human immunodeficiency virus 1.
The subject of data set [4] is Human immunodeficiency virus. Briefly: Antiviral activity against HIV infected in PBMC. Format: functional, organism-based. The following applies: Human immunodeficiency virus 1.
Data set [5] deals with Human immunodeficiency virus. Briefly: Ratio of IC50 for pseudotyped HIV by luciferase reporter gene assay in presence of human serum albumin to IC50 for pseudotyped HIV by luciferase reporter gene assay. The format is functional.
In data set [6] the test system is Human immunodeficiency virus. Briefly: Antiviral activity against HIV infected in PBMC assessed as protein-adjusted compound concentration. The following applies: Human immunodeficiency virus 1. The format is functional, organism-based.
Data set [7] can be described thus: Inhibition of CYP450 (unknown origin) up to 33 uM. Format: ADME. The following applies: human.
Data set [8] is described as follows: Half life in rat at 1 mg/kg, iv as bolus dose. The format is ADME, organism-based. Details: dose 1 mg/kg, route intravenous; call rule not given here. As to conditions: in vivo.
A short description of data set [9]: Half life in dog at 1 mg/kg, iv as bolus dose. The following applies: in vivo. Details: dose 1 mg/kg, route intravenous. Format: ADME, organism-based, Canis lupus familiaris.
The nature of data set [10]: Half life in cynomolgus monkey at 1 mg/kg, iv as bolus dose. The format is ADME, organism-based, Macaca fascicularis. Further details: dose 1 mg/kg, route intravenous. As to conditions: in vivo.
Data set [11] in a line: Oral bioavailability in rat at 5 mg/kg. Format: ADME, organism-based. As to conditions: in vivo.
Data set [12] can be described thus: Oral bioavailability in dog at 5 mg/kg. Format: ADME, organism-based, Canis lupus familiaris. As to conditions: in vivo.
Data set [13] in a line: Oral bioavailability in cynomolgus monkey at 5 mg/kg. Format: ADME, organism-based, Macaca fascicularis. As to conditions: in vivo.
Data set [14] in a line: Ratio of plasma concentration in rat at 5 mg/kg, po to IC90 for HIV infected in PBMC assessed as protein-adjusted compound concentration. As to conditions: in vivo. Details: dose 5 mg/kg, route oral. Format: ADME, organism-based.
A short description of data set [15]: Ratio of plasma concentration in dog at 5 mg/kg, po to IC90 for HIV infected in PBMC assessed as protein-adjusted compound concentration. The format is ADME, organism-based. As to conditions: in vivo. Details: dose 5 mg/kg, route oral.
The nature of data set [16]: Ratio of plasma concentration in cynomolgus monkey at 5 mg/kg, po to IC90 for HIV infected in PBMC assessed as protein-adjusted compound concentration. Further details: dose 5 mg/kg, route oral. The following applies: in vivo. The format is ADME, organism-based.
Data set [17] can be described thus: Plasma clearance in rat at 1 mg/kg, iv.
A short description of data set [18]: Plasma clearance in dog at 1 mg/kg, iv.
The nature of data set [19]: Plasma clearance in cynomolgus monkey at 1 mg/kg, iv.

This is an account of results in ChEMBL document CHEMBL3352021, “Naphthyridinone (NTD) integrase inhibitors 4. Investigating N1 acetamide substituent effects with C3 amide groups” (Bioorg Med Chem Lett, 2014).

Chain of Human immunodeficiency virus type 1 integrase (Q7ZJM1 whole entry): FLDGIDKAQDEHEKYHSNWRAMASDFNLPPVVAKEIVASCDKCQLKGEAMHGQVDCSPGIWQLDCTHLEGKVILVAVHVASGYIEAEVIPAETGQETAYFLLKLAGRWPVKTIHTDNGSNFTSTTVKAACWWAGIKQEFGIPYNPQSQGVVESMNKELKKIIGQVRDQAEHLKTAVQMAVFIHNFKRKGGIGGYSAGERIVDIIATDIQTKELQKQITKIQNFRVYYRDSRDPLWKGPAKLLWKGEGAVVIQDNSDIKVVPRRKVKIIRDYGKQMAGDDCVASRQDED

On to `CCNC(=O)Cn1c(=O)c(C(=O)NC)c(O)c2ncc(Cc3ccc(F)cc3)cc21`, for which the IC50 (commonly the concentration needed to halve the response being measured) in [1] is 8.2 nM; in data set [2] it was 2.9 nM; in data set [3] it was 11 nM.
`CNC(=O)c1c(O)c2ncc(Cc3ccc(F)cc3)cc2n(CC(N)=O)c1=O`: the IC50 in data set [1] turned out to be 7.6 nM; in data set [2] it was 2.2 nM; in data set [3] it was 56 nM.
Consider `CNC(=O)Cn1c(=O)c(C(=O)NC)c(O)c2ncc(Cc3ccc(F)cc3)cc21`, for which the IC50 in data set [1] amounted to 9.3 nM; in data set [2] it was 3.3 nM; in data set [3], 22 nM.
For `CNC(=O)c1c(O)c2ncc(Cc3ccc(F)cc3)cc2n(CC(=O)N(C)C)c1=O`, the IC50 in [1] came to 9.3 nM; in data set [2], 5.9 nM; in data set [3], 19 nM; in [4], 4.2 nM; in data set [6], 14 nM. In addition, in data set [5], the “Ratio IC50” value is 3.3. The IC90 (commonly the concentration needed for an effect of 90%) in data set [6] came out at 55 nM. Moreover, the “inhibition (INH)” value in [7] is listed as “Not Active”. Besides, the half-life (as a rule, how long it takes for the measured level to halve) was 13.8 h in [8], 1.3 h in [9] and 5 h in data set [10]. The bioavailability – broadly, dose-corrected exposure relative to a reference, in per cent – in [11] came out at 69%; in data set [12], 75%; in data set [13], 60%. The Ratio is listed as 2.4 in data set [14], 0.1 in data set [15] and 0.7 in data set [16]. In addition, the clearance (as a rule, the volume of plasma or blood freed of the substance per unit of time) in [17] came to 0.7 mL/min/kg; in data set [18], 10.9 mL/min/kg; in data set [19], 6.3 mL/min/kg.
Take `CCN(CC)C(=O)Cn1c(=O)c(C(=O)NC)c(O)c2ncc(Cc3ccc(F)cc3)cc21`: the IC50 in data set [1] is 4.4 nM; in data set [2] it was 9.2 nM; in data set [3] it was 17 nM.
With `CNC(=O)c1c(O)c2ncc(Cc3ccc(F)cc3)cc2n(CC(=O)N2CCCC2)c1=O`, the 50% inhibitory concentration (IC50) in data set [1] is 13 nM; in [2], 4.9 nM; in data set [3] it was 16 nM.
Turning to `CCCNC(=O)Cn1c(=O)c(C(=O)NC)c(O)c2ncc(Cc3ccc(F)cc3)cc21`, the IC50 in data set [1] was found to be 9.2 nM; in [2], 5.5 nM; in data set [3], 14 nM.
In the case of `CNC(=O)c1c(O)c2ncc(Cc3ccc(F)cc3)cc2n(CC(=O)NC(C)C)c1=O`, the IC50 in data set [1] came out at 7.8 nM; in [2], 3.2 nM; in data set [3] it was 12 nM.
For `CNC(=O)c1c(O)c2ncc(Cc3ccc(F)cc3)cc2n(CC(=O)NC2CC2)c1=O` the same measures were 4.4 nM, 2.6 nM and 7.6 nM.
For `CNC(=O)c1c(O)c2ncc(Cc3ccc(F)cc3)cc2n(CC(=O)NC(C)(C)C)c1=O` the same measures were 6.9 nM, 4.8 nM and 16 nM.
In the case of `CNC(=O)c1c(O)c2ncc(Cc3ccc(F)cc3)cc2n(CC(=O)NCC2CC2)c1=O`, the IC50 in [1] was determined as 8 nM; in data set [2], 5.9 nM; in data set [3] it was 33 nM.
Taken in the same sequence, the figures for `CNC(=O)c1c(O)c2ncc(Cc3ccc(F)cc3)cc2n(CC(=O)NCC(F)(F)F)c1=O` were 7.1 nM, 1.5 nM and 15 nM.
As for `CNC(=O)c1c(O)c2ncc(Cc3ccc(F)cc3)cc2n(CC(=O)NCCOC)c1=O`, the IC50 in [1] amounted to 6.8 nM; in data set [2] it was 3.7 nM; in data set [3], 91 nM.
For the molecule `CNC(=O)c1c(O)c2ncc(Cc3ccc(F)cc3)cc2n(CC(=O)NCCN(C)C)c1=O`, the IC50 turned out to be 22 nM in data set [1], 42 nM in [2] and 83 nM in [3].
Taken in the same sequence, the figures for `CNC(=O)c1c(O)c2ncc(Cc3ccc(F)cc3)cc2n(CC(=O)NOC)c1=O` were 5.7 nM, 3.3 nM and 13 nM.
Taken in the same sequence, the figures for `CN(C)C(=O)Cn1c(=O)c(C(=O)NC2CC2)c(O)c2ncc(Cc3ccc(F)cc3)cc21` were 3 nM, 9.3 nM and 193 nM.
For `CN(C)C(=O)Cn1c(=O)c(C(=O)NCCO)c(O)c2ncc(Cc3ccc(F)cc3)cc21` the same measures were 5.7 nM, 17 nM and 35 nM.
With `COCCNC(=O)c1c(O)c2ncc(Cc3ccc(F)cc3)cc2n(CC(=O)N(C)C)c1=O`, the half-inhibitory concentration (IC50) in [1] was determined as 4 nM; in data set [2], 3.1 nM; in data set [3] it was 9 nM; in data set [4], 4.3 nM; in data set [6], 13 nM. Moreover, in data set [5], the “Ratio IC50” value was determined as 2.9. In addition, the IC90 in data set [6] was determined as 50 nM. In addition, the “inhibition (INH)” value in [7] is “Not Active”. Moreover, the figures for the half-life in data set [8], in data set [9] and in data set [10] were 12.5 h, 1.8 h and 5.4 h, respectively. Further, the bioavailability in [11] was found to be 59%; in data set [12], 7%; in data set [13], 31%. Besides, the figures for the Ratio in data set [14] and in [16] were 0.5 and 0.6, respectively. For the same molecule, the results for the clearance in data set [17], in data set [18] and in [19] were 3.6 mL/min/kg, 19.5 mL/min/kg and 9.2 mL/min/kg, respectively.
In the case of `C[C@H](CO)NC(=O)c1c(O)c2ncc(Cc3ccc(F)cc3)cc2n(CC(=O)N(C)C)c1=O`, the IC50 in data set [1] amounted to 8.6 nM; in [2] it was 31 nM; in data set [3], 40 nM.
For `C[C@@H](CO)NC(=O)c1c(O)c2ncc(Cc3ccc(F)cc3)cc2n(CC(=O)N(C)C)c1=O` the same measures were 7.1 nM, 17 nM and 24 nM.
Regarding `CN(C)C(=O)Cn1c(=O)c(C(=O)NC(C)(C)CO)c(O)c2ncc(Cc3ccc(F)cc3)cc21`, the figures for the IC50 in data set [1], in data set [2] and in [3] were 6.5 nM, 3.6 nM and 82 nM, respectively.
For `CN(C)C(=O)Cn1c(=O)c(C(=O)NC2(CO)CCCC2)c(O)c2ncc(Cc3ccc(F)cc3)cc21`, the IC50 in data set [1] turned out to be 23 nM; in data set [2], 7.2 nM; in data set [3], 24 nM.
Take `C[C@@H](O)CNC(=O)c1c(O)c2ncc(Cc3ccc(F)cc3)cc2n(CC(=O)N(C)C)c1=O`: the IC50 in data set [1] was 9.2 nM; in data set [2], 11 nM; in data set [3], 70 nM.
Taken in the same sequence, the figures for `C[C@H](O)CNC(=O)c1c(O)c2ncc(Cc3ccc(F)cc3)cc2n(CC(=O)N(C)C)c1=O` were 4.1 nM, 7.1 nM and 15 nM.
For `CN(C)C(=O)Cn1c(=O)c(C(=O)NCCN2CCOCC2)c(O)c2ncc(Cc3ccc(F)cc3)cc21`, the IC50 in data set [1] came out at 8.6 nM; in data set [2], 19 nM; in data set [3], 25 nM.
Taken in the same sequence, the figures for `COCCNC(=O)c1c(O)c2ncc(Cc3ccc(F)cc3)cc2n(CC(N)=O)c1=O` were 7.7 nM, 4.3 nM and 22 nM.
For `COCCNC(=O)c1c(O)c2ncc(Cc3ccc(F)cc3)cc2n(CC(=O)NC2CC2)c1=O` the same measures were 7.3 nM, 3 nM and 18 nM.
For `COCCNC(=O)c1c(O)c2ncc(Cc3ccc(F)cc3)cc2n(CC(=O)NC2CCC2)c1=O` the same measures were 8.5 nM, 3.3 nM and 39 nM.
In the case of `COCCNC(=O)c1c(O)c2ncc(Cc3ccc(F)cc3)cc2n(CC(=O)NC(C)C)c1=O`, the IC50 in data set [1] worked out at 6.2 nM; in data set [2], 3.2 nM; in [3] it was 57 nM.
Take `COCCNC(=O)c1c(O)c2ncc(Cc3ccc(F)cc3)cc2n(CC(=O)NCC(F)(F)F)c1=O`: the IC50 came to 11 nM in data set [1], 2.4 nM in data set [2] and 20 nM in data set [3].
For `COCCNC(=O)c1c(O)c2ncc(Cc3ccc(F)cc3)cc2n(CC(=O)NCCN(C)C)c1=O` the same measures were 45 nM, 27 nM and 124 nM.
On to `COCCNC(=O)c1c(O)c2ncc(Cc3ccc(F)cc3)cc2n(CC(=O)N2CCCC2)c1=O`, for which the IC50 in data set [1] was found to be 42 nM; in data set [2], 3.8 nM; in data set [3] it was 11 nM.
For the molecule `COCCNC(=O)c1c(O)c2ncc(Cc3ccc(F)cc3)cc2n(CC(=O)N2CCCCC2)c1=O`, the IC50 was determined as 4.7 nM in data set [1], 3.6 nM in data set [2] and 12 nM in data set [3].
For the molecule `COCCNC(=O)c1c(O)c2ncc(Cc3ccc(F)cc3)cc2n(CC(=O)N2CCOCC2)c1=O`, the IC50 turned out to be 7.6 nM in [1], 3.5 nM in [2] and 6.7 nM in data set [3].
For `COCCNC(=O)c1c(O)c2ncc(Cc3ccc(F)cc3)cc2n(CC(=O)N2CCN(C)CC2)c1=O` the same measures were 28 nM, 5.3 nM and 13 nM.
On to `Cn1c(=O)c(C(=O)NCCO)c(O)c2ncc(Cc3ccc(F)cc3)cc21` [GSK-364735], for which the IC50 in data set [1] was determined as 8.1 nM; in data set [2], 1.7 nM.
